Assay results published in US7037939B2, “Compound and derivative of gabapentin” (Industrial Technology Research Institue, priority 2002, dated 2006).
Counter-ions that a name gives are not always drawn.

Test system: Caco-2 cell
Test: Caco-2 monolayer cell transmission rate (in vitro intestinal absorption model)
Assay type: in vitro ADME, human
Description: The common use of the activity selection model for the in vitro intestinal absorption comprises: (1) Carcinoms (Caco-2); (2) Using Chamber; (3) Everted Gut Sac. Basically, there is no difference for those three drug-activity-selection models when they are used for evaluating the activity selection. However, in terms of the cell source from human, a cell line is predominant. Moreover, with the cellular metabolism being similar to human intestines, Caco-2 becomes an excellent tool in the study of intestine absorption. Therefore, in the comparison of the in vitro transmission rate between gabapentin and gabapentin derivatives, the Caco-2 system is still the favorable model.
The research for studying gabapentin and the derivatives thereof in the present invention includes: Caco-2 cell activation, Caco-2 monolayer cell cultivation, resistance value measurement, effect of time to gabapentin transmission rate, and comparison of transmission rate between gabapentin and gabapentin derivatives. In constructing the Caco-2 monolayer, the original cell line is the human colon adenocarcinoma cell (Caco-2), and its data sheet is listed as Table 2.
The Caco-2 cell is activated appropriately, and seeded in the transwell at 37° C. in an amount of about 1×10^5. The aliquot is cultivated in 5% CO2 at 37° C. and replaced with a fresh medium every 3 to 4 days, and then the monolayer cell is obtained by the 21 days cultivation. The integrity of the Caco-2 cell is further characterized by tissue section and resistance value measurement.
HPLC Analysis: Intersil ODS-3V 250*4.6 mm column, Solvent: MeOH/H2O=10:90 to 70:30 with 0.1% of NH4OAc, Flow rate=1.0 ml/min, ELSD: Evaporative Light Scattering Detector. Every derivative has been repeated for 3 times in analysis, 4 hr later, the sample is analyzed for the transmission rate and then averaged to account its transmission fold.

[1] = Caco-2 monolayer, 4 h, mean of 3 repeats, HPLC-ELSD
[2] = ratio of Caco-2 transmission rate to GBP.HCl, 4 h

SMILES | Caco-2 Cell Mean Total Transmission rate 4 h (%) [1] [%] | gbp-prodrug/gbp Transmission Fold [2] [Fold] | Caco-2 Cell Mean Total Transmission rate 4 h (%) (human, Caco-2, 4 h) | gbp-prodrug/gbp Transmission Fold (human, Caco-2, 4 h) [Fold]
NCC1(CC(=O)O)CCCCC1 [Control 1, Gabapentin HCl, reference compound] | 1.1 | 1 | – | –
CC(C)C[C@@H](NC(=O)OC(C)(C)C)C(=O)NCC1(CC(=O)O)CCCCC1 [Embodiment 1, {1-[(2R-tert-Butoxycarbonylamino-4-methyl-pentanoylamino)-methyl]-cyclohexyl}-acetic acid] | 29 | 26.4 | – | –
CC(C)(C)OC(=O)NC(C(=O)NCC1(CC(=O)O)CCCCC1)c1ccccc1 (stereo not shown) [Embodiment 3, {1-[(2-tert-Butoxycarbonylamino-2-phenyl-acetylamino)-methyl]-cyclohexyl}-acetic acid] | 3.1 | 2.8 | – | –
CC(C)(C)OC(=O)NC(Cc1ccccc1)C(=O)NCC1(CC(=O)O)CCCCC1 (stereo not shown) [Embodiment 4, {1-[(2-tert-Butoxycarbonylamino-3-phenyl-propionylamino)-methyl]-cyclohexyl}-acetic acid] | 10 | 9.1 | – | –
CSCCC(NC(=O)OC(C)(C)C)C(=O)NCC1(CC(=O)O)CCCCC1 (stereo not shown) [Embodiment 5, {1-[(2-tert-Butoxycarbonylamino-4-methylsulfanyl-butyrylamino)-methyl]-cyclohexyl}-acetic acid] | 26 | 23.6 | – | –
CC(C)(C)OC(=O)NCC1(CC(=O)NCC2(CC(=O)O)CCCCC2)CCCCC1 [Embodiment 6, [1-({2-[1-(tert-Butoxycarbonylamino-methyl)-cyclohexyl]-acetylamino}-methyl)-cyclohexyl]-acetic acid] | 27 | 24.5 | – | –
CCOC(=O)CC1(CNC(=O)C2CCNCC2)CCCCC1 [Embodiment 7, (1-{[(Piperidine-4-carbonyl)-amino]-methyl}-cyclohexyl)-acetic acid ethyl ester] | – | – | 1 | 0.9
CCOC(=O)CC1(CNC(=O)c2ccccc2)CCCCC1 [Embodiment 8, [1-(Benzoylamino-methyl)-cyclohexyl]-acetic acid ethyl ester] | – | – | 21.4 | 19.5
CCOC(=O)CC1(CNC(=O)C2(N)CCCCC2)CCCCC1 [Embodiment 9, (1-{[(1-Amino-cyclohexanecarbonyl)-amino]-methyl}-cyclohexyl)-acetic acid ethyl ester] | – | – | 10.4 | 9.5
CC(C)(C)OC(=O)NC(CO)C(=O)NCC1(CC(=O)O)CCCCC1 (stereo not shown) [Embodiment 10, {1-[(2-tert-Butoxycarbonylamino-3-hydroxy-propionylamino)-methyl]-cyclohexyl}-acetic acid] | – | – | 20.7 | 18.8
CCOC(=O)CC1(CNC(=O)C(C)N)CCCCC1 (stereo not shown) [Embodiment 11, {1-[(2-Amino-propionylamino)-methyl]-cyclohexyl}-acetic acid ethyl ester] | – | – | 17.6 | 16.0
CCOC(=O)C(Cc1ccccc1)NC(=O)C(C)NC(=O)CC1(CN)CCCCC1 (stereo not shown) [Embodiment 12, 2-{2-[2-(1-Aminonethyl-cyclohexyl)-acetylamino]-propionylamino}-3-phenyl-propionic acid ethyl ester] | 2.83 | 2.6 | – | –
CCOC(=O)CC1(CNC(=O)C(N)CC(C)C)CCCCC1 (stereo not shown) [Embodiment 13, {1-[(2-Amino-4-methyl-pentanoylamino)-methyl]-cyclohexyl}-acetic acid ethyl ester] | – | – | 12.37 | 11.2
CCOC(=O)CC1(CNC(=O)C(N)CO)CCCCC1 (stereo not shown) [Embodiment 14, {1-[(2-Amino-3-hydroxy-propionylamino)-methyl]-cyclohexyl}-acetic acid ethyl ester] | – | – | 10.95 | 10.0
CC(C)(C)OC(=O)NC(Cc1ccccc1)C(=O)NCC1(CC(=O)O)CCCCC1 (stereo not shown) [Embodiment 15, {1-[(2-tert-Butoxycarbonylamino-3-phenyl-propionylamino)-methyl]-cyclohexyl}-acetic acid] | 0.93 | 0.8 | – | –
CCOC(=O)CC1(CNC(=O)C(N)Cc2ccccc2)CCCCC1 (stereo not shown) [Embodiment 16, {1-[(2-Amino-3-phenyl-propionylamino)-methyl]-cyclohexyl}-acetic acid ethyl ester] | – | – | 10.30 | 9.4
CCOC(=O)CC1(CNC(=O)C(N)C(C)CC)CCCCC1 (stereo not shown) [Embodiment 17, {1-[(2-Amino-3-methyl-pentanoylamino)-methyl]-cyclohexyl}-acetic acid ethyl ester] | – | – | 9.47 | 8.6
CCOC(=O)CC1(CNC(=O)c2ccccc2CN)CCCCC1 [Embodiment 18, {1-[(2-Aminomethyl-benzoylamino)-methyl]-cyclohexyl}-acetic acid ethyl ester] | – | – | 2.13 | 1.9
CCOC(=O)CC1(CNC(=O)C2CCC(CN)CC2)CCCCC1 (stereo not shown) [Embodiment 19, (1-{[(4-Aminomethyl-cyclohexanecarbonyl)-amino]-methyl}-cyclohexyl)-acetic acid ethyl ester] | – | – | 11.14 | 10.1
CCOC(=O)CC1(CNC(=O)C(CC(C)C)NC(=O)CC2(CN)CCCCC2)CCCCC1 (stereo not shown) [Embodiment 20, [1-({2-[2-(1-Aminomethyl-cyclohexyl)-acetylamino]-4-methyl-pentanoylamino}-methyl)-cyclohexyl]-acetic acid ethyl ester] | 12.22 | 11.1 | – | –
CCOC(=O)CC1(CNC(=O)C(NC(=O)CC2(CN)CCCCC2)c2ccccc2)CCCCC1 (stereo not shown) [Embodiment 21, [1-({2-[2-(1-Aminomethyl-cyclohexyl)-acetylamino]-2-phenyl-acetylamino}-methyl)-cyclohexyl]-acetic acid ethyl ester] | 8.58 | 7.8 | – | –
CCOC(=O)CC1(CNC(=O)C(Cc2ccccc2)NC(=O)CC2(CN)CCCCC2)CCCCC1 (stereo not shown) [Embodiment 22, [1-({2-[2-(1-Aminomethyl-cyclohexyl)-acetylamino]-3-phenyl-propionylamino}-methyl)-cyclohexyl]-acetic acid ethyl ester] | 9.26 | 8.4 | – | –
NCC1(CC(=O)N2CCCC2C(=O)NCC2(CC(=O)O)CCCCC2)CCCCC1 (stereo not shown) [Embodiment 23, {1-[({1-[2-(1-Aminomethyl-cyclohexyl)-acetyl]-pyrrolidine-2-carbonyl}-amino)-methyl]-cyclohexyl}-acetic acid] | 10.73 | 9.8 | – | –
CCOC(=O)CC1(CNC(=O)c2ccc(O)c(OC)c2)CCCCC1 [Embodiment 24, {1-[(4-Hydroxy-3-methoxy-benzoylamino)-methyl]-cyclohexyl}-acetic acid ethyl ester] | – | – | 13.59 | 12.4
CCOC(=O)CC1(CNC(=O)C2CCC(=O)N2)CCCCC1 (stereo not shown) [Embodiment 25, (1-{[(5-Oxo-pyrrolidine-2-carbonyl)-amino]-methyl}-cyclohexyl)-acetic acid ethyl ester] | – | – | 5.68 | 5.2
CCOC(=O)CC1(CNC(=O)C(N)CCSC)CCCCC1 (stereo not shown) [Embodiment 26, {1-[(2-Amino-4-methylsulfanyl-butyrylamino)-methyl]-cyclohexyl}-acetic acid ethyl ester] | – | – | 9.02 | 8.2
CCOC(=O)CC1(CNC(=O)c2cccnc2)CCCCC1 [Embodiment 27, (1-{[(Pyridine-3-carbonyl)-amino]-methyl}-cyclohexyl)-acetic acid ethyl ester] | – | – | 9.39 | 8.5
CCOC(=O)CC1(CNC(=O)C(C)N)CCCCC1 (stereo not shown) [Embodiment 28, {1-[(2-Amino-propionylamino)-methyl]-cyclohexyl}-acetic acid ethyl ester] | – | – | 8.11 | 7.4
CCOC(=O)CC1(CNC(=O)C(N)C(C)C)CCCCC1 (stereo not shown) [Embodiment 29, {1-[(2-Amino-3-methyl-butyrylamino)-methyl]-cyclohexyl}-acetic acid ethyl ester] | – | – | 8.73 | 7.9
